Series [1] relates to TL strain of wild type fish. The experiment in a line: 24 hour MTC assay in the TL strain of wild type fish. In kind it is in vivo, Zebrafish (Danio rerio). The following applies: 24-48 h.p.f. The protocol: Assays using Tg 043/050 uas:GFP+/−enhancer:gal4+/−×TL (“panretinal” enhancer) fish, incubated with various compounds (see Table below) from 24 h.p.f. to 5 d.p.f. (unless otherwise stated), then scoring the extent of the gut vessel plexus by microscopy. A score of 3 represents a good, fully formed gut vessel plexus, with 20 or more branched vessels; 2 represents as slightly less well formed plexus with 10-19 vessels; 1 represents a poorly formed plexus with 1-9 vessels; 0 represents a complete absence of visible gut vessels. Each of the compounds was tested in a 24 hour MTC assay in the TL strain of wild type fish (24-48 h.p.f.). The MTC from this assay was used as the highest concentration for assays in the transgenic fish, with half-log intervals.

The next series has as its system gut vessel plexus. Kind of series: Zebrafish angiogenesis assay: scoring of the gut vessel plexus in transgenic GFP fish. The following applies: for Inhibition of gut vessel formation: transgenic GFP fish incubated 24 h.p.f. to 5 d.p.f., gut vessel plexus scored by microscopy; for concentrations showing concentration-dependent inhibition of vessels: gut vessels. It is filed as in vivo, Zebrafish (Danio rerio). More on the design: Inhibition of gut vessel formation: scale not given here. From the text:
Zebrafish (Danio rerio) are ideal organisms for the investigation of blood vessel growth because they are transparent in the embryonic and larval stages of development so that blood vessels marked with a fluorescent marker can clearly be seen in vivo in the live animal. Zebrafish blood vessel development is well characterised and vessels can be visualised by microangiography or by expressing green fluorescent protein in blood vessels (Isogai et al. (2001) Dev Biol 230(2): 278-301; Covassin et al. (2006) Proc Natl Acad Sci USA 103(17): 6554-9). Zebrafish are also ideal vertebrate organisms in which to screen for active small molecules because the larvae can be treated with compound simply by immersion of the fish in compound solution in wells of a standard multi-well plate (12, 24 or 96-wells).
Expression of the zebrafish PR can be detected as early as 48 hours post fertilisation and an assay was therefore developed to investigate the effects of compounds on blood vessel formation in zebrafish after this time. Previous studies on inhibition of blood vessel growth have focussed on formation of intersegmental vessels (Serbedzija et al. (1999) Angiogenesis 3(4): 353-9; Parng at al. (2002) Assay Drug Dev Technol 1(1 Pt 1): 41-8) but these particular vessels are specified and begin to form prior to the time when the PR is expressed in the zebrafish embryo. Accordingly, later-developing vessels around the gut, the vascular plexus of the mid gut which branches from the subintestinal vein and supraintestinal artery, were monitored.
A similar method was developed for screening of compounds using a line of fish that express GFP under control of an enhancer that drives expression in blood vessels, spinal cord and eyes. The fish are a cross between the et19.1 enhancer:Gal4 line (Scott et al. (2007) Nat Methods 4(4): 323-6) and a UAS:GFP line made in-house in a TL zebrafish background. Transgenic zebrafish embryos or larvae expressing GFP in the blood vessel walls were treated with test compounds by immersion in aqueous medium containing the compound at the required concentration, for a period of one or more days. At the end of the incubation period the fish were immobilised on their sides and the organisation and structure of the vasculature was visualised by fluorescent microscopy, which is possible because of the transparency of zebrafish larvae. The vessels can be identified by comparison with the online Interactive Atlas of Zebrafish Vascular Anatomy (Isogai et al. (2001) Dev Biol 230(2): 278-301).
Vessels such as the dorsal aorta, posterior cardinal vein, caudal artery, caudal vein, intersegmental vessels, dorsal longitudinal anastomotic vessels and the gut vessel plexus were assessed in each fish and compared to the control group. […] A subjective score was given to the fore/mid gut vessel plexus (by assessment of the number of visible vessels and extent of spread of the plexus), ranging from “3” for a normal extensively vascularised gut, to “0” for a complete absence of any branching of vessels around the gut. The intestinal vessel plexus forms between 3 and 5 days post fertilisation (d.p.f.) and so these assays were usually scored at 5 d.p.f. The vessels could also be quantified by digital photography and quantification of fluorescence levels or number of vessels in the region of interest.
Assays using Tg 043/050 uas:GFP+/−enhancer:gal4+/−×TL (“panretinal” enhancer) fish, incubated with various compounds (see Table below) from 24 h.p.f. to 5 d.p.f. (unless otherwise stated), then scoring the extent of the gut vessel plexus by microscopy. A score of 3 represents a good, fully formed gut vessel plexus, with 20 or more branched vessels; 2 represents as slightly less well formed plexus with 10-19 vessels; 1 represents a poorly formed plexus with 1-9 vessels; 0 represents a complete absence of visible gut vessels. Each of the compounds was tested in a 24 hour MTC assay in the TL strain of wild type fish (24-48 h.p.f.). […]

For series [2] the following is noted: cited from earlier work.

As for `COC[C@]1(OC)CC[C@H]2[C@@H]3CCC4=CC(=O)CCC4=C3[C@@H](c3ccc(/C=N/O)cc3)C[C@@]21C` [Asoprisnil], the MTC in series [1] was determined as 10 µM. In addition, in the series on gut vessel plexus, the “Inhibition of gut vessel formation” value is reported as “+”.
As to `Cc1cc(C)c(/C=C2\C(=O)Nc3ccccc32)[nH]1` [SU5416], the “inhibition of gut vessel formation (in words)” value with gut vessel plexus is given as “vessel formation was inhibited”.
As for `CC1=CC(C)(C)Nc2ccc(-c3cccc(C#N)c3)cc21` [LG120753], the MTC in series [1] was determined as 3 µM. Further, in the series on gut vessel plexus, the “concentrations showing concentration-dependent inhibition of vessels” value fell in the range of 0.3 to 3 µM and the “Inhibition of gut vessel formation” value is “+”.
In the case of `CC1=CC(C)(C)Nc2ccc(-c3csc(C#N)c3)cc21` [LG121046], the MTC in series [1] fell in the range of 3 to 10 µM. Besides, in the series on gut vessel plexus, the “Inhibition of gut vessel formation” value is reported as “++”.
On the same counts, the results for `CC1(C)OC(=O)Nc2ccc(-c3ccc(F)c(C#N)c3)cc21` [Wyeth 6] are 100 µM and “+”.
For the compound `CC#CC1(O)CCC2C3CCC4=CC(=O)CCC4=C3C(c3ccc(N)cc3)CC21C` (centres unmarked) [RU42848], the MTC in series [1] came to 100 µM. In addition, the “Inhibition of gut vessel formation” value in the series with gut vessel plexus is “+”.
Take `CC#CC1(O)CCC2C3CCC4=CC(=O)CCC4=C3C(c3ccc(NC)cc3)CC21C` (centres unmarked) [RU42633]: in series [1], the MTC was determined as 30 µM. Besides, in the series with gut vessel plexus (concentration response curves, 1-5 dpf), the “concentration of best inhibition of gut vessels” value is 30 µM. For the same compound, in the series on gut vessel plexus, the “Inhibition of gut vessel formation” value was “+++”.
In the case of `CC1(C)OC(=O)Nc2ccc(-c3ccc(F)c(Cl)c3)cc21` [Wyeth 4j], the MTC in series [1] lay in the range of 1 to 3 µM. Besides, in the series on gut vessel plexus, the “Inhibition of gut vessel formation” value is on record as “+”.
In the same order, the values of `CC1(C)OC(=O)Nc2ccc(-c3cc(F)cc(Cl)c3)cc21` [Wyeth 4g] are 3 µM and “++”.
As to `CC#C[C@]1(O)CC[C@H]2[C@@H]3CCC4=CC(=O)CCC4=C3[C@@H](c3ccc(N(C)C)cc3)C[C@@]21C` [RU486, 17beta-hydroxy-11-beta-(4-dimethylaminophenyl)-17alpha-(prop-1-ynyl)-estra-4,9-dien-3-one], in series [1], the MTC was in the range of 10 to 30 µM. Besides, in series [2] (after oral dosing), the plasma half life was 20 to 30 h and the “time to peak plasma levels” value is 1 to 2 h. For the same compound, the oral bioavailability in series [2] (oral) is 40-70%. In the series with gut vessel plexus, the “inhibition of gut vessel formation (in words)” value is “dose-dependent” and the “Inhibition of gut vessel formation” value was “+++”. The “rescue of vessel inhibition by progesterone” value in the series with gut vessel plexus (10 μM of each (RU486 and progesterone)) is on record as “rescued by progesterone”.
`CC1(C)OC(=O)Nc2ccc(-c3cc(F)cc(C#N)c3)cc21` [Wyeth 4h] registered an MTC in series [1] of 30 µM. Also, the “concentration of maximal inhibition of gut vessels” value with gut vessel plexus (data not shown) was 30 µM. Besides, the “Inhibition of gut vessel formation” value with gut vessel plexus is recorded as “++”.
For `CN(C)c1ccc(C2CC3(C)C(CCC3(O)C#CCO)C3CCC4=CC(=O)CCC4=C23)cc1` (centres unmarked) [RU42698], the MTC in series [1] came to 100 µM. In the series with gut vessel plexus, the “concentrations showing concentration-dependent inhibition of vessels” value was in the range of 30 to 100 µM and the “Inhibition of gut vessel formation” value is on record as “++”.
